Key:
[1] = Stability test in liver microsomes (mouse); assay type: in vitro ADME; settings: mouse liver microsomes 0.5 mg/mL, compound 1 μM, 37° C.
Text: (§1) Example 5 Stability Test in Liver Microsomes
(§2) Both male CD-1 mouse pooled liver microsomes and male SD rat pooled liver microsomes were purchased from BioreclamationIVT Corporation, USA.
(§3) Phenacetin, glucose-6-phosphate dehydrogenase (G-6-PDH) and nicotinamide adenine dinucleotide phosphate (NADP) were all purchased from Sigma-Aldrich Corporation, USA. Glucose-6-phosphate (G-6-P) was purchased from Shanghai Eybridge Chemical Technology Co., Ltd.
(§4) Ten mM test compound stock solution: a certain amount of test compound was weighed, and dissolved with an appropriate volume of DMSO to prepare a stock solution with a concentration of 10 mM for use.
(§5) Reaction stopping solution: an appropriate amount of internal standard compound phenacetin was dissolved in acetonitrile to prepare a reaction stopping solution with a concentration of 1000 ng/mL for use at room temperature.
(§6) The test compound stock solution was diluted with an organic solvent (usually a mixture of acetonitrile, methanol and water with various ratios, depending on the solubility of the compound, if necessary, 1 N hydrochloric acid or 1 N sodium hydroxide would be added to facilitate solubilization) to the 0.1 mM (the final concentration of the compound in the reaction system was 1 μM) and the concentration percentage of the organic solvents in the incubation system no more than 1% (wherein the percentage of DMSO was required to be no more than 0.1%). An appropriate amount of 100 mM NADP, 500 mM G-6-P and 100 Unit/mL G-6-PDH were mixed and diluted with ultrapure water (the final system contains 1 mM NADP, 5 mM G-6-P and 1 Unit/mL G-6-PDH), pre-incubated in a 37° C. water bath for 10 minutes and then placed on ice for use as a NADPH regeneration solution. 20 mg/mL liver microsomes solution and 200 mM phosphate buffer was mixed, and diluted with ultrapure water to give a liver microsomes solution containing 2.5 mg/mL liver microsomes (the final concentration of the reaction system is 0.5 mg/mL) and 50 mM phosphate buffer. The diluted liver microsomes solution was mixed with 0.1 mM compound solution, a mixture of 100 mM EDTA, 300 mM MgCl2 solution, 200 mM phosphate buffer (the final system was 3 mM MgCl2, 1 mM EDTA and 50 mM phosphate buffer) and water in an appropriate volume was added. Finally, the NADPH regeneration solution was added, then the reaction solution was placed in a 37° C. water bath to start the reaction (the reaction time was 30 minutes), and the reaction was stopped by adding the ice-cold acetonitrile reaction stopping solution containing the internal standard. The 0-minute sample was not incubated in a 37° C. water bath, and its difference from the 30-minute sample further lies in that the ice-cold acetonitrile reaction stopping solution containing the internal standard was added first, and then the NADPH regeneration solution was added. The sample added with the reaction stopping internal standard solution was vortexed and mixed well, and then centrifuged at 4400 rpm for 10 minutes. The supernatant was taken and diluted ten times with 50% methanol for LC-MS/MS analysis.
(§7) LC-MS/MS was used to determine the concentration of the compound in the sample. The percentage of the remaining compound after 30 minutes of incubation comparing with that in the 0-minute sample was calculated using the peak area ratio of the compound to the internal standard as an indicator, to evaluate the metabolic stability of the compound.
(§8) Instrument: API4500, API4000 or LTQ Mass Spectrometer; the liquid phase is UHPLC system (Shimadzu LC-30 AD, model Nexra X2) including liquid delivery unit, column thermostat, detector and autosampler; or Agilent 1200 Binary Pump series HPLC and CTC Autosampler.
(§9) Chromatographic column: Waters XSELECT Hss T3 C18 (2.5 μm, 2.1×50 mm) or […] (5 μm, 2.0×50 mm)
(§10) A: water with 0.1% FA (formic acid) (with or without 0.1% ACN (acetonitrile))
(§11) B: acetonitrile with 0.1% FA (formic acid).

[2] = Stability test in liver microsomes (rat); assay type: in vitro ADME; settings: for stability in rat & mouse liver microsomes compared with the reference GDC-0853: 30 minutes; for RLM (percentage of the remaining compound after 30 minutes of incubation): rat liver microsomes 0.5 mg/mL, compound 1 μM, 37° C.
Text: as §1, §2, §3, §4, §5, §6, §7, §8, §9, §10, §11

[3] = tested on: TMD8 subcutaneous xenograft (human diffuse large B-cell lymphoma cells); experiment: In vivo efficacy in TMD8 subcutaneous xenograft model in nude mice; settings: for Number of animals with CR (Day 21): 8 animals per group; for Tumor volume (mm^3) ± SD Day 0: Day 0, before drug administration; for TGI (%) / Tumor volume (mm^3) ± SD Day 21: Day 21; for RBW (%) (Day 21): relative body weight; for Tumor growth inhibition (TGI %): oral gavage once a day, 21 days after treatment, vs vehicle control
Method: Example 7 Evaluation of In Vivo Efficacy of the Compound of the Present Invention in TMD8 Subcutaneous Xenograft Model
Objects: To investigate the anti-tumor activity of compound 19 in TMD8 subcutaneous xenograft model in nude mice.
Methods: Human diffuse large B-cell lymphoma cells TMD8 (acquired under license from Tokyo Medical and Dental University) were cultured in RPMI1640 medium containing 10% fetal bovine serum. 1×10^7 tumor cells suspended in RPMI1640 medium mixed well with Matrigel (purchased from Corning, USA) at 1:1 were implanted subcutaneously on the right flank of each male Balb/c nude mouse (Shanghai Lingchang Biotechnology Co., Ltd.), pretreated with cyclophosphamide (at a dose of 200 mg/kg, intraperitoneal injection 24 h before cell inoculation). […] All drugs were administered by oral gavage, once a day, and the vehicle control group was administered orally with 0.5% hydroxypropyl methylcellulose solution (pH=3).
Tumor volumes (tumor volume=0.5×long diameter×short diameter^2) and body weights of the mice were measured regularly. The tumor volume change and body weight were statistically analyzed, with p<0.05 considered statistically significant, and p<0.01 as extremely statistically significant.
The anti-tumor activity was evaluated by tumor growth inhibition. Tumor growth inhibition (TGI %)=100%×(1−(TVDt (treatment group)−TVD0 (treatment group))/(TVDt (control group)−TVD0 (control group))) Relative body weight (RBW %)=BWDt/BWD0×100%
wherein, TVD0 represents the tumor volume obtained at first measurement, namely, the tumor volume before drug administration, and TVDt represents the tumor volume on the day of measurement; BWD0 represents the body weight of the animal obtained at first measurement, namely, the body weight of the animal before drug administration; BWDt represents the body weight of the animal on the day of measurement.

[4] = 10 mg/kg oral gavage once a day
[5] = 30 mg/kg oral gavage once a day

| Structure (SMILES) | MLM (percentage of the remaining compound after 30 minutes of incubation) [1] | RLM (percentage of the remaining compound after 30 minutes of incubation) [2] | stability in rat & mouse liver microsomes compared with the reference GDC-0853 [2] | other results |
| --- | --- | --- | --- | --- |
| Cn1cc(-c2ccnc(-n3ccn4c5c(cc4c3=O)CC(C)(C)C5)c2CO)cc(Nc2ccc(N3CCN(C4COC4)CC3)cn2)c1=O [Compound 9] | 95.7% | 89.5% | better than that of the reference GDC-0853 | – |
| C[C@H]1CN(C2COC2)CCN1c1ccc(Nc2cc(-c3ccnc(-n4ccn5c6c(cc5c4=O)CC(C)(C)C6)c3CO)nn(C)c2=O)nc1 [Compound 22] | 83.4% | 95.6% | better than that of the reference GDC-0853 | – |
| C[C@H]1CN(C2COC2)CCN1c1cnc(Nc2cc(-c3ccnc(-n4ccn5c6c(cc5c4=O)CC(C)(C)C6)c3CO)cn(C)c2=O)nc1 [Compound 44] | 93.1% | 97.1% | better than that of the reference GDC-0853 | – |
| C[C@H]1CN(C2COC2)CCN1c1ccc(Nc2cc(-c3ccnc(-n4cnn5c6c(cc5c4=O)CC(C)(C)C6)c3CO)cn(C)c2=O)nc1 [Compound 63] | 85.8% | 89.6% | better than that of the reference GDC-0853 | – |
| C[C@H]1CN(C2COC2)CCN1c1ccc(Nc2cc(-c3ccnc(-n4ncn5c6c(cc5c4=O)CC(C)(C)C6)c3CO)cn(C)c2=O)nc1 [Compound 79] | ~100% | ~100% | better than that of the reference GDC-0853 | – |

Continued, in another order:

| MLM (percentage of the remaining compound after 30 minutes of incubation) [1] | RLM (percentage of the remaining compound after 30 minutes of incubation) [2] | Structure (SMILES) | stability in rat & mouse liver microsomes compared with the reference GDC-0853 [2] | other results |
| --- | --- | --- | --- | --- |
| 83.4% | 91.8% | CC1CCc2cc3c(=O)n(-c4nccc(-c5cc(Nc6ccc(N7CCN(C8COC8)C[C@@H]7C)cn6)c(=O)n(C)c5)c4CO)ccn3c2C1 (mixture of isomers) [Compound 78] | better than that of the reference GDC-0853 | – |
| 90.5% | 98.9% | C[C@@H]1CN(c2ccc(Nc3cc(-c4ccnc(-n5ccn6c7c(cc6c5=O)CCC7)c4CO)cn(C)c3=O)nc2)[C@@H](C)CN1C1COC1 [Compound 2, 2-(5-((5-((2S,5R)-2,5-dimethyl-4-(oxetan-3-yl)piperazin-1-yl)pyridin-2-yl)amino)-3′-(hydroxymethyl)-1-methyl-6-oxo-1,6-dihydro-[3,4′-bispyridin]-2′-yl)-7,8-dihydro-2H-cyclopenta[4,5]pyrrolo[1,2-a]pyrazin-1(6H)-one] | better than that of the reference GDC-0853 | – |
| 91.8% | 92.7% | C[C@H]1CN(C2COC2)CCN1c1ccc(Nc2cc(-c3ccnc(-n4ccn5c6c(cc5c4=O)CC(C)(C)C6)c3CO)cn(C)c2=O)nc1 [Compound 19] | better than that of the reference GDC-0853 | Number of animals with CR (Day 21) [3, 4]: 0; Tumor volume (mm^3) ± SD Day 0 [3, 4]: 400 ± 41 mm^3; TGI (%) [3, 4]: 76.5%; Tumor volume (mm^3) ± SD Day 21 [3, 4]: 1065 mm^3; RBW (%) (Day 21) [3, 4]: 111.0%; Tumor growth inhibition (TGI %) ([3]; 10 mg/kg): 76.5%; Number of animals with CR (Day 21) [3, 5]: 8; Tumor volume (mm^3) ± SD Day 0 [3, 5]: 396 ± 47 mm^3; TGI (%) [3, 5]: 114%; Tumor volume (mm^3) ± SD Day 21 [3, 5]: 0 mm^3; RBW (%) (Day 21) [3, 5]: 109.8%; Tumor growth inhibition (TGI %) ([3]; 30 mg/kg): 114%; mice with complete tumor regression (CR) ([3]; 30 mg/kg, oral once a day, Day 21, 8 animals per group): 8 mice |
| 89.5% | 93.7% | C[C@H]1CN(C2COC2)CCN1c1ccc(Nc2cc(-c3ccnc(-n4ccn5c6c(cc5c4=O)CCC(F)(F)C6)c3CO)cn(C)c2=O)nc1 [Compound 56] | better than that of the reference GDC-0853 | – |
| 97.1% | ~100% | C[C@H]1CN(C2COC2)CCN1c1ccc(Nc2cc(-c3ccnc(-n4ccn5c6c(cc5c4=O)CC(F)(F)CC6)c3CO)cn(C)c2=O)nc1 [Compound 58] | better than that of the reference GDC-0853 | – |
| 95.6% | 92.1% | C[C@H]1CN(C2COC2)CCN1c1ccc(Nc2cc(-c3ccnc(-n4ccn5c6c(cc5c4=O)CCC6)c3CO)cn(C)c2=O)nc1 [Compound 64] | better than that of the reference GDC-0853 | – |
| 97.5% | 87.7% | C[C@H]1CN(C2COC2)CCN1c1ccc(Nc2cc(-c3ccnc(-n4ccn5c(cc6ccccc65)c4=O)c3CO)cn(C)c2=O)nc1 [Compound 74] | better than that of the reference GDC-0853 | – |
| 83.0% | 84.0% | C[C@H]1CN(C2COC2)CCN1c1ccc(Nc2cc(-c3ccnc(-n4ccn5c(cc6cc(F)ccc65)c4=O)c3CO)cn(C)c2=O)nc1 [Compound 75] | better than that of the reference GDC-0853 | – |

Reference: US11478474B2, “2-(3′-(hydroxymethyl)-1-methyl-5-((5-(2-methyl-4-(oxetan-3-yl)piperazin-1-yl)pyridin-2-yl)amino)-6-oxo-1,6-dihydro-[3,4′-bipyridin]-2′-yl)-7,7-dimethyl-7,8-dihydro-2H-cyclopenta[4,5]pyrrolo[1,2-a]pyrazin-1(6H)-one as a BTK inhibitor” (HUTCHISON MEDIPHARMA LIMITED, priority 2020, dated 2022)
